Target: human APJ receptor (Homo sapiens (Human), UniProt P35414)
Assay: [35S]GTPγS binding assay on membranes from CHO cells stably expressing human APJ receptor
Assay type: biochemical
Details: read-out: Activity hAPJ SPA EC50 IP
How it was run: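 Agonist-driven [35S]GTPγS (0.2 nM) binding was measured over 90 min at room temperature on human APJ-expressing CHO membranes with bead capture, in buffer containing 3 μM GDP, 200 mM NaCl and 5 mM MgCl2 (pH 7.5). Excess unlabelled GTPγS (100 μM) gave nonspecific signal; EC50 from non-linear fits.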

Sequence of human APJ receptor (P35414 whole entry): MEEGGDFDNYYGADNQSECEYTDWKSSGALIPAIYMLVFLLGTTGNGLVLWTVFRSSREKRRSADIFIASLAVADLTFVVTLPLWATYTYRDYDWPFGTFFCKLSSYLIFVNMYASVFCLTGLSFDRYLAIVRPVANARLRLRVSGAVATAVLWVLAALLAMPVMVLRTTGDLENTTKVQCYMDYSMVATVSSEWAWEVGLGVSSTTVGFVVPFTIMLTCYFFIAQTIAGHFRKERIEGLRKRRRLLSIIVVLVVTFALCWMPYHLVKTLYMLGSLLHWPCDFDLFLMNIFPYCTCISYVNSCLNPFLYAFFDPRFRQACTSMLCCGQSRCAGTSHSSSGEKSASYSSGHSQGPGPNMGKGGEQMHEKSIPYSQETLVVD

| Structure (SMILES) | EC50 [nM] |
| --- | --- |
| CO[C@H](c1ncc(Cl)cn1)[C@H](C)S(=O)(=O)Nc1nnc([C@H]2CCOC2)n1C1(C)CC1 (single isomer, unassigned) [Example 125.0, (1R,2S)-1-(5-chloropyrimidin-2-yl)-1-methoxy-N-(4-(1-methylcyclopropyl)-5-((R)-tetrahydrofuran-3-yl)-4H-1,2,4-triazol-3-yl)propane-2-sulfonamide or (1R,2S)-1-(5-chloropyrimidin-2-yl)-1-methoxy-N-(4-(1-methylcyclopropyl)-5-((S)-tetrahydrofuran-3-yl)-4H-1,2,4-triazol-3-yl)propane-2-sulfonamide] | 540 |
| CO[C@H](c1ncc(Cl)cn1)[C@H](C)S(=O)(=O)Nc1nnc([C@H]2CCCOC2)n1C1(C)CC1 (single isomer, unassigned) [Example 126.0, (1R,2S)-1-(5-chloropyrimidin-2-yl)-1-methoxy-N-(4-(1-methylcyclopropyl)-5-((R)-tetrahydro-2H-pyran-3-yl)-4H-1,2,4-triazol-3-yl)propane-2-sulfonamide or (1R,2S)-1-(5-chloropyrimidin-2-yl)-1-methoxy-N-(4-(1-methylcyclopropyl)-5-((S)-tetrahydro-2H-pyran-3-yl)-4H-1,2,4-triazol-3-yl)propane-2-sulfonamide] | 480 |
| CO[C@H](c1ncc(Cl)cn1)[C@H](C)S(=O)(=O)Nc1nnc([C@H]2CCCOC2)n1C1(C)CC1 (single isomer, unassigned) [Example 127.0, (1R,2S)-1-(5-chloropyrimidin-2-yl)-1-methoxy-N-(4-(1-methylcyclopropyl)-5-((R)-tetrahydro-2H-pyran-3-yl)-4H-1,2,4-triazol-3-yl)propane-2-sulfonamide or (1R,2S)-1-(5-chloropyrimidin-2-yl)-1-methoxy-N-(4-(1-methylcyclopropyl)-5-((S)-tetrahydro-2H-pyran-3-yl)-4H-1,2,4-triazol-3-yl)propane-2-sulfonamide] | 7.7 |
| CO[C@H](c1cnc(C)cn1)[C@H](C)S(=O)(=O)Nc1nnc([C@H]2CCOC2)n1C1(C)CC1 (single isomer, unassigned) [Example 128.0, (1R,2S)-1-methoxy-N-(4-(1-methylcyclopropyl)-5-((R)-tetrahydrofuran-3-yl)-4H-1,2,4-triazol-3-yl)-1-(5-methylpyrazin-2-yl)propane-2-sulfonamide or (1R,2S)-1-methoxy-N-(4-(1-methylcyclopropyl)-5-((S)-tetrahydrofuran-3-yl)-4H-1,2,4-triazol-3-yl)-1-(5-methylpyrazin-2-yl)propane-2-sulfonamide] | 790 |
| CO[C@H](c1cnc(C)cn1)[C@H](C)S(=O)(=O)Nc1nnc([C@H]2CCOC2)n1C1(C)CC1 (single isomer, unassigned) [Example 129.0, (1R,2S)-1-methoxy-N-(4-(1-methylcyclopropyl)-5-((R)-tetrahydrofuran-3-yl)-4H-1,2,4-triazol-3-yl)-1-(5-methylpyrazin-2-yl)propane-2-sulfonamide or (1R,2S)-1-methoxy-N-(4-(1-methylcyclopropyl)-5-((S)-tetrahydrofuran-3-yl)-4H-1,2,4-triazol-3-yl)-1-(5-methylpyrazin-2-yl)propane-2-sulfonamide] | 2100 |
| CO[C@H](c1cnc(C)cn1)[C@H](C)S(=O)(=O)Nc1nnc([C@H]2CCCOC2)n1C1(C)CC1 (single isomer, unassigned) [Example 130.0, (1R,2S)-1-methoxy-N-(4-(1-methylcyclopropyl)-5-((R)-tetrahydro-2H-pyran-3-yl)-4H-1,2,4-triazol-3-yl)-1-(5-methylpyrazin-2-yl)propane-2-sulfonamide or (1R,2S)-1-methoxy-N-(4-(1-methylcyclopropyl)-5-((S)-tetrahydro-2H-pyran-3-yl)-4H-1,2,4-triazol-3-yl)-1-(5-methylpyrazin-2-yl)propane-2-sulfonamide] | 1800 |
| CO[C@H](c1cnc(C)cn1)[C@H](C)S(=O)(=O)Nc1nnc([C@H]2CCCOC2)n1C1(C)CC1 (single isomer, unassigned) [Example 131.0, (1R,2S)-1-methoxy-N-(4-(1-methylcyclopropyl)-5-((R)-tetrahydro-2H-pyran-3-yl)-4H-1,2,4-triazol-3-yl)-1-(5-methylpyrazin-2-yl)propane-2-sulfonamide or (1R,2S)-1-methoxy-N-(4-(1-methylcyclopropyl)-5-((S)-tetrahydro-2H-pyran-3-yl)-4H-1,2,4-triazol-3-yl)-1-(5-methylpyrazin-2-yl)propane-2-sulfonamide] | 550 |
| COc1cccc(OC)c1-n1c(NS(=O)(=O)[C@@H](C)[C@H](C)c2cnc(C)cn2)nnc1[C@H]1CCOC1 (single isomer, unassigned) [Example 132.0, (2S,3R)-N-(4-(2,6-dimethoxyphenyl)-5-((R)-tetrahydrofuran-3-yl)-4H-1,2,4-triazol-3-yl)-3-(5-methylpyrazin-2-yl)butane-2-sulfonamide or (2S,3R)-N-(4-(2,6-dimethoxyphenyl)-5-((S)-tetrahydrofuran-3-yl)-4H-1,2,4-triazol-3-yl)-3-(5-methylpyrazin-2-yl)butane-2-sulfonamide] | 140 |
| COc1cccc(OC)c1-n1c(NS(=O)(=O)[C@@H](C)[C@H](C)c2cnc(C)cn2)nnc1[C@H]1CCOC1 (single isomer, unassigned) [Example 133.0, (2S,3R)-N-(4-(2,6-dimethoxyphenyl)-5-((R)-tetrahydrofuran-3-yl)-4H-1,2,4-triazol-3-yl)-3-(5-methylpyrazin-2-yl)butane-2-sulfonamide or (2S,3R)-N-(4-(2,6-dimethoxyphenyl)-5-((S)-tetrahydrofuran-3-yl)-4H-1,2,4-triazol-3-yl)-3-(5-methylpyrazin-2-yl)butane-2-sulfonamide] | 320 |
| COc1cccc(OC)c1-n1c(NS(=O)(=O)[C@@H](C)[C@H](C)c2cnc(C)cn2)nnc1[C@H]1CCCOC1 (single isomer, unassigned) [Example 134.0, (2S,3R)-N-(4-(2,6-dimethoxyphenyl)-5-((R)-tetrahydro-2H-pyran-3-yl)-4H-1,2,4-triazol-3-yl)-3-(5-methylpyrazin-2-yl)butane-2-sulfonamide or (2S,3R)-N-(4-(2,6-dimethoxyphenyl)-5-((S)-tetrahydro-2H-pyran-3-yl)-4H-1,2,4-triazol-3-yl)-3-(5-methylpyrazin-2-yl)butane-2-sulfonamide] | 400 |
| COc1cccc(OC)c1-n1c(NS(=O)(=O)[C@@H](C)[C@H](C)c2cnc(C)cn2)nnc1[C@H]1CCCOC1 (single isomer, unassigned) [Example 135.0, (2S,3R)-N-(4-(2,6-dimethoxyphenyl)-5-((R)-tetrahydro-2H-pyran-3-yl)-4H-1,2,4-triazol-3-yl)-3-(5-methylpyrazin-2-yl)butane-2-sulfonamide or (2S,3R)-N-(4-(2,6-dimethoxyphenyl)-5-((S)-tetrahydro-2H-pyran-3-yl)-4H-1,2,4-triazol-3-yl)-3-(5-methylpyrazin-2-yl)butane-2-sulfonamide] | 35 |
| COc1cccc(OC)c1-n1c(NS(=O)(=O)[C@@H](C)[C@@H](OC(C)C)c2ncc(C)cn2)nnc1[C@H]1CCCOC1 (single isomer, unassigned) [Example 136.0, (1S,2S)-N-(4-(2,6-dimethoxyphenyl)-5-((R)-tetrahydro-2H-pyran-3-yl)-4H-1,2,4-triazol-3-yl)-1-isopropoxy-1-(5-methylpyrimidin-2-yl)propane-2-sulfonamide or (1S,2S)-N-(4-(2,6-dimethoxyphenyl)-5-((S)-tetrahydro-2H-pyran-3-yl)-4H-1,2,4-triazol-3-yl)-1-isopropoxy-1-(5-methylpyrimidin-2-yl)propane-2-sulfonamide] | 130 |
| COc1cccc(OC)c1-n1c(NS(=O)(=O)[C@@H](C)[C@@H](OC(C)C)c2ncc(C)cn2)nnc1[C@H]1CCCOC1 (single isomer, unassigned) [Example 137.0, (1S,2S)-N-(4-(2,6-dimethoxyphenyl)-5-((R)-tetrahydro-2H-pyran-3-yl)-4H-1,2,4-triazol-3-yl)-1-isopropoxy-1-(5-methylpyrimidin-2-yl)propane-2-sulfonamide or (1S,2S)-N-(4-(2,6-dimethoxyphenyl)-5-((S)-tetrahydro-2H-pyran-3-yl)-4H-1,2,4-triazol-3-yl)-1-isopropoxy-1-(5-methylpyrimidin-2-yl)propane-2-sulfonamide] | 4.8 |
| COc1ncnc(OC)c1-n1c(NS(=O)(=O)[C@@H](C)[C@H](OC)c2ncc(Cl)cn2)nnc1[C@H]1CCC(C)(C)O1 (single isomer, unassigned) [Example 138.0, (1R,2S)-1-(5-chloropyrimidin-2-yl)-N-(4-(4,6-dimethoxypyrimidin-5-yl)-5-((S)-5,5-dimethyltetrahydrofuran-2-yl)-4H-1,2,4-triazol-3-yl)-1-methoxypropane-2-sulfonamide or (1R,2S)-1-(5-chloropyrimidin-2-yl)-N-(4-(4,6-dimethoxypyrimidin-5-yl)-5-((R)-5,5-dimethyltetrahydrofuran-2-yl)-4H-1,2,4-triazol-3-yl)-1-methoxypropane-2-sulfonamide] | 120 |
| COc1cccc(OC)c1-n1c(NS(=O)(=O)[C@@H](C)[C@H](O)c2ncc(C)cn2)nnc1[C@H]1CCOC1 (single isomer, unassigned) [Example 141.0, (1R,2S)-N-(4-(2,6-dimethoxyphenyl)-5-((S)-tetrahydrofuran-3-yl)-4H-1,2,4-triazol-3-yl)-1-hydroxy-1-(5-methylpyrimidin-2-yl)propane-2-sulfonamide or (1R,2S)-N-(4-(2,6-dimethoxyphenyl)-5-((R)-tetrahydrofuran-3-yl)-4H-1,2,4-triazol-3-yl)-1-hydroxy-1-(5-methylpyrimidin-2-yl)propane-2-sulfonamide] | 200 |

From US10150760B2, “Compounds for use in preparing heterocyclic triazole agonists of the APJ receptor” (AMGEN INC., priority 2016, dated 2018)
